The text below walks through data of US20070123500A1, “Prodrugs of ERbeta-selective substances, processes for their preparation and pharmaceutical compositions comprising these compounds” (priority 2005, published 2007).

The term IC50 denotes the midpoint of a concentration-inhibition curve.

Each structure is given as a SMILES string.

For series [1], the target named is human carboanhydrase II (Homo sapiens, UniProt P00918). Briefly: Carboanhydrase inhibition, photometric, nitrophenyl acetate conversion (CA II). The following applies: read-out: CAII IC50. The series is classed as biochemical. The source says:
(§1) b) Carboanhydrase Inhibition—Test Principle and Experimental Description:
(§2) Photometric determination of the inhibition of human carboanhydrase I or II by sulphonamides or sulphamates on microtitre plates with the aid of the enzymatic conversion of nitrophenyl acetate with a colour change from colourless to yellow.

For series [2], the target named is human carboanhydrase I (Homo sapiens, UniProt P00915). Briefly: Carboanhydrase inhibition, photometric, nitrophenyl acetate conversion (CA I). It is filed as biochemical. The following applies: read-out: CAI IC50.
Chain of human carboanhydrase I (P00915 whole entry): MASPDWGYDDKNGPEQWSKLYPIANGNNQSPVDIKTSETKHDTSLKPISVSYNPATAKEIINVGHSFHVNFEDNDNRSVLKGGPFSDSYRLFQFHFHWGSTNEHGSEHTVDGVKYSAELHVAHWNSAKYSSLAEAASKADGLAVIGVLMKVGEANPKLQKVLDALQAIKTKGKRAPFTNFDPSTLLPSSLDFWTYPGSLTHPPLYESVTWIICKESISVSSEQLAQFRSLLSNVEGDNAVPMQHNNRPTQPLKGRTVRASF
Source text: as §1, §2

The nature of series [3]: Blood/plasma ratio in human erythrocytes. The series is classed as in vitro ADME. The following applies: human erythrocytes (blood). As to the method: (§3) a) Blood-plasma Concentration Ratio—Test Principle and Experimental Description:
(§4) The SO2—NH2 group of the substances according to the invention can lead to a concentration in erythrocytes as a result of binding to carboanhydrases.
(§5) Freshly obtained, heparinized blood from a rat is treated with a defined amount of active compound. The active compound concentration in the plasma obtained therefrom is measured against a calibration curve of spiked (with a known active compound concentration) plasma. The blood-plasma ratio is calculated from the measured concentration and the theoretical concentration.
(§6) In contrast to the results published in WO 01/91797, the concentration ratios of the compounds according to the invention between erythrocytes and plasma are not in a range from 10-1000:1, but in the range <10:1.

A short description of series [4]: Blood-plasma concentration ratio in rat blood. It is filed as in vitro ADME. The following applies: freshly obtained heparinized whole blood. As to the method: as §3, §4, §5, §6

Turning to `C=C[C@]12CC[C@]3(C)[C@@H](F)[C@H](OC(=O)c4ccccc4)C[C@H]3[C@@H]1CCc1cc(O)ccc12` [17β-Fluoro-3-hydroxy-9α-vinyloestra-1,3,5(10)-trien-16α-yl benzoate, reference compound], the IC50 in series [1] and in series [2] was over 10000 nM throughout.

On to `C=C[C@]12CC[C@]3(C)C[C@H](OC(=O)c4cccc(S(N)(=O)=O)c4)C[C@H]3[C@@H]1CCc1cc(O)ccc12` [3-Hydroxy-9α-vinyloestra-1,3,5(10)-trien-16α-yl 3′-sulphamoylbenzoate], for which the values for the IC50 in series [1] and in series [2] were 490 nM and 3400 nM, respectively.

As for `C[C@]12CC[C@@H]3c4ccc(OS(N)(=O)=O)cc4CC[C@H]3[C@@H]1CC[C@@H]2O` [Oestradiol 3-sulphamate, reference compound], the IC50 in series [2] was 157 ± 10.6 nM.

Take `C=C[C@]12CC[C@]3(C)[C@@H](F)[C@H](OC(=O)c4cccc(S(N)(=O)=O)c4)C[C@H]3[C@@H]1CCc1cc(O)ccc12` [17β-Fluoro-3-hydroxy-9α-vinyloestra-1,3,5(10)-trien-16α-yl 3′-sulphamoylbenzoate]: the results for the blood plasma ratio in series [3] and in series [4] were 1.2 and about 3.7, respectively. The IC50 in series [1] stood at 720 nM; in series [2], 3700 nM.
